One series deals with T1, p75^NTR (Homo sapiens, UniProt P08138).
T1 construct: purchased R&D Systems
The series is described as follows: proNGF binding to p75NTR by ELISA. The settings on record: 100 ng/ml proNGF. On the procedure: (§1) Briefly, 96-well plates were incubated with 0.1 pmol (at 1 nM) of p75/Fc or TrkA/Fc recombinant protein obtained from R&D System (Minneapolis, Minn., United States of America) overnight at 4° C. followed by incubation with blocking buffer for 1 hour at room temperature. […] Plates were then washed five times with Tris-buffered saline (TBS) containing 0.05% Tween-20 and incubated with anti-NGF rabbit polyclonal antibody overnight at 4° C. Following five washes with TBS, wells were incubated for 2.5 hours at room temperature with anti-rabbit IgG HRP conjugate and washed five times. 3,3′,5,5′-tetramethyl-benzidine substrate was added and the optical density measured at 450 nm.

In series [1] the test system is cortical and septal neurons. Description: Aβ-induced degeneration of cortical and septal neurons. It counts as cell-based.
In the next series the test system is mature oligodendrocytes. The series is described as follows: Oligodendrocyte cell death assay (MBP/TUNEL) with or without proNGF. Type of series: cell-based, rat. The settings on record: 24 h. As for the experimental part: Cortical oligondendrocytes from rat pups were prepared as previously described (Yoon et al. (1998) J Neurosci 18, 3273-3281, Harrington, A. W., Kim, J. Y., Yoon, S. O. (2002) J Neurosci 22, 156-166). Cells were treated with recombinant, cleavage-resistant proNGF at 0.05 nM (2.8 ng/ml). Controls were treated with equivalent volumes of proNGF purification buffer containing 350 mM imidazole. 24 hours after treatment, the cells were fixed and processed for MBP and TUNEL staining as previously described (Beattie, M. S. et al. (2002) Neuron 36, 375-386). 200-250 cells were counted per well, for a minimum of 600 cells per experimental condition.

In the next series the test system is TrkA-Fc. Description: NGF/TrkA-Fc binding by NGF ELISA. The settings on record: up to 10,000 nM compound. As for the experimental part:
as §1

The subject of another series is p75^NTR−/− cells. The series is described as follows: Survival of p75NTR+/+ versus p75NTR-/- hippocampal neurons. Type of series: cell-based, mouse. The settings on record: neurotrophins 1.8 nM, compounds 5 nM. As for the experimental part:
(§2) Hippocampal neurons were prepared from E16-17 mouse embryos as previously described (Yang. T. et al. (2003) J Neurosci 23, 3353-3363). […] For studies employing p75^NTR+/+ and p75^NTR−/− neurons, mice carrying a mutation in exon 3 of the p75^NTR gene (Lee, K. F. et al. (1992) Cell 69, 737-749) were bred onto a B6 congenic background (>10 B6 backcrosses).
(§3) After 48 hours in culture, cell survival was assessed as previously described (Longo, F. M., Manthorpe. M., Xie. Y. M., Varon, S. (1997) J Neurosci Res 48, 1-17) using a combination of standard morphological criteria along with visual determination of whether a given cell converted MTT to its blue formazan product. The number of surviving neurons was determined by counting the total number of cells in each well that were both morphologically intact and filed with blue product (Longo F. M., Manthorpe. M., Xie, Y. M., Varon, S. (1997) J Neurosci Res 48, 1-17). For each neurotrophin or compound concentration, duplicate wells were counted and the resulting values averaged. Activity of each compound was confirmed by blinded counts. Counts were normalized to survival achieved with 25 ng/ml BDNF or to baseline survival. Fitting of dose-responsive curves was performed with Sigmaplot obtained from SYSTAT Software Inc. (Richmond, Calif., United States of America).
(§4) For all studies applying signaling inhibitors, p75^NTR antibodies or p75^NTR−/− neurons, survival was assessed at 48 hours.

The target of series [2] is T2, p75^NTR-expressing 3T3 cells (Homo sapiens, UniProt P08138).
T2 construct: host or cells: NIH3T3 fibroblasts
T2 sequence (P08138 29-427): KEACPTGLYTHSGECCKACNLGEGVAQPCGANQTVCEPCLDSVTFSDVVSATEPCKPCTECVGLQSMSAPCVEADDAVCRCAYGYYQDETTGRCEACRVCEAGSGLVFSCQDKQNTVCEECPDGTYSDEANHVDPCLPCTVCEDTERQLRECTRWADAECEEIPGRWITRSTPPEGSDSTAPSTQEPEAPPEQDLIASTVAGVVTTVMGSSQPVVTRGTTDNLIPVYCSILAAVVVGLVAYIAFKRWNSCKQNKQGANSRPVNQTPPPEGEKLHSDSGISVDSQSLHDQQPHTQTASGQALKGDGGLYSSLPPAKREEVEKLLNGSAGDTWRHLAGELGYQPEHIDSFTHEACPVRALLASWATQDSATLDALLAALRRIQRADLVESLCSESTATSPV
Description: p75NTR antibody (Ab 9651) competition on 3T3 cells, western blot. It counts as binding. The settings on record: 100 nM compound, 90 min, 4° C. As for the experimental part: NIH3T3 fibroblasts expressing either null vector or p75^NTR (Huang, C. S. et al. (1999) J Biol Chem 274, 36707-36714) were obtained from Dr. William Mobley (Stanford University, Calif., United States of America). Cells were grown in monolayers, harvested in PBS with 2 mM EDTA, pelleted, and resuspended in ice-cold DMEM HEPES with 1 mg/ml BSA. 6-9×10^6 cells from one confluent 6-well plate were used for each experimental point.
For binding analysis, p75^NTR antibody (1:100) was allowed to bind in the presence or absence of 100 nM p75-binding compounds for 90 minutes at 4° C. with gentle rotation, followed by four washes in PBS. The final cell pellet was resuspended in lysis buffer.
Western blots were performed as described above. To detect the presence of p75^NTR antibody, blots were probed with horseradish peroxidase-linked goat anti-rabbit IgG obtained from Amersham/Pharmacia Biotech (Piscataway, N.J., United States of America). Signals were detected by the ECL chemiluminescence system obtained from Amersham Biosciences (Piscataway, […]., United States of America). To control for variation in protein loading, the blot was stripped and reprobed with β-actin monoclonal antibody obtained from Sigma (St. Louis, Mo., United States of America).
On the technique in general: Immunoblotting shows a protein as a band on a membrane.

Another series has as its system hippocampal neurons. Description: Hippocampal neuron survival with p75NTR antisera (antibody inhibition). The settings on record: antiserum 1:100, 48 h. It counts as cell-based, mouse. On the procedure: as §2, §3, §4
For series [3], the system named is E16-17 mouse hippocampal neurons. Description: Hippocampal neuron survival (morphology plus MTT conversion). Type of series: cell-based. On the procedure:
as §2, §3

The next series concerns the target T3, TrkA (Homo sapiens, UniProt P04629).
T3 construct: expressed in transfected cells; host or cells: 3T3 cells (3T3-TrkA)
The series is described as follows: Trk Y490 phosphorylation western blot in TrkA-expressing 3T3 cells. Type of series: cell-based. As for the experimental part:
Lysates were centrifuged, the supernatant collected, and protein concentrations determined using the BCA Protein Assay Reagent obtained from Pierce (Rockford, Ill., United States of America). Western blots were performed as described previously (Yang, T. et al. (2003) J Neurosci 23, 3353-3363). Western blot signals were detected using the ECL Chemiluminescence System obtained by Amersham (Piscataway, N.J., United States of America) (Yang, T. et al. (2003) J Neurosci 23, 3353-3363).

pEC50: −log10 of the molar value. “Also recorded” adds a separate entry of the source.

T1 sequence (P08138 with tags, fused parts or gaps limits assumed): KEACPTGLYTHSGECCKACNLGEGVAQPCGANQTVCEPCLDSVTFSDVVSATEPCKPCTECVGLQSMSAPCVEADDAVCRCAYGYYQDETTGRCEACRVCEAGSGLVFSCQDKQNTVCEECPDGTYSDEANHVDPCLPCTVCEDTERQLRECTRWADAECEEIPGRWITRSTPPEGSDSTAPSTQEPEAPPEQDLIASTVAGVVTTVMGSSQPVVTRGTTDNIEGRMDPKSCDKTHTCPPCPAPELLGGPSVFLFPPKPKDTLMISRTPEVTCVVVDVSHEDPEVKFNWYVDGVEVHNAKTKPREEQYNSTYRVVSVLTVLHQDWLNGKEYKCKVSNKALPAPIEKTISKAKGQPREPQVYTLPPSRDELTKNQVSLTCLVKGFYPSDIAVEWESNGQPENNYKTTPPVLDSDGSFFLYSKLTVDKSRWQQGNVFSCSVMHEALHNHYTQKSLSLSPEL
T3 sequence (P04629 33-796, species assumed): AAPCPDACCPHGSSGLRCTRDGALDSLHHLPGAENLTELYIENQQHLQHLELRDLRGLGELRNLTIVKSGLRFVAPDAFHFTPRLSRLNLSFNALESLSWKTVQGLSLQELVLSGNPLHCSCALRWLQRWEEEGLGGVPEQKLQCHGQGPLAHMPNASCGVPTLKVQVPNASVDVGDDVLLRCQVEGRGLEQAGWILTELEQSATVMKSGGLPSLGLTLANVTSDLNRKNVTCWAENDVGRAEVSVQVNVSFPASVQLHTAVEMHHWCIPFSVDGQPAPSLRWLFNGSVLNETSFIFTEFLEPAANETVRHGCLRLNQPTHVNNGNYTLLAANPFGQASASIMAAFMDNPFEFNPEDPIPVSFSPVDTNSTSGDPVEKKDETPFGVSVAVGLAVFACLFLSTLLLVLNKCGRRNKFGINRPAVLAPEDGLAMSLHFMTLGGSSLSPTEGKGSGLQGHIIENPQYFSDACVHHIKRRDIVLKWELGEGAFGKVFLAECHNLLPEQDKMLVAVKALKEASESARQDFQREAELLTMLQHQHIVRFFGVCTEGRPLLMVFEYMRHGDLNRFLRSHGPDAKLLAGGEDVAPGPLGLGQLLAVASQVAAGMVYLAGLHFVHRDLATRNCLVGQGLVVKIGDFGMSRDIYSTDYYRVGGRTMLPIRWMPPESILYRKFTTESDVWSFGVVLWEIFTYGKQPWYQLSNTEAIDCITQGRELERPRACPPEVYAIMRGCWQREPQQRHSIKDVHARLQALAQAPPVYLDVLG

Consider `CCC(C)C(N)C(=O)NCCN1CCOCC1` (stereo not shown) [Compound 4], for which the “proNGF ELISA signal versus proNGF alone” value at p75^NTR (P<0.01) is “significantly less than proNGF alone”. Besides, the “decrement of proNGF binding to p75NTR” value on p75^NTR (at the highest concentration (range 1500 nM to 10,000 nM)) was “approximately 30%”. The “block of Aβ-induced degeneration of cortical and septal neurons” value in series [1] is “block Aβ-induced degeneration of cortical and septal neurons”. Moreover, the “inhibition of proNGF-induced oligodendrocyte death” value in the series with mature oligodendrocytes (2.8 ng/ml (0.05 nM) proNGF) is “significantly inhibited; also recorded: blocked cell death”. In the series on mature oligodendrocytes (absence of proNGF), the “promotion of oligodendrocyte cell death by compound alone” value is reported as “did not promote cell death”. Further, the “effect on NGF binding to TrkA-Fc” value with TrkA-Fc was “did not affect; also recorded: no compound effects up to 10,000 nM”. Besides, the “effect of p75NTR-deficiency on promotion of neuron survival by the substance” value in the series with p75^NTR−/− cells is reported as “completely inhibits”. For the same compound, in series [2], the “displacement of anti-p75NTR Ab 9651” value is recorded as “significantly displaced”. In the series with hippocampal neurons, the “effect of Ab 9651 on promotion of neuron survival by the substance” value is “completely blocked; also recorded: completely inhibits” and the “survival versus CM in the presence of Ab 9651” value is “not significant”. For the same compound, in series [3] (5 nM compound along with 50 ng/ml NGF), the “additive effect on survival with NGF” value is listed as “no additive effect on survival”. Moreover, the pEC50 (usually the EC50 on a negative log10 scale, so that one unit is a factor of ten) in series [3] (Mus musculus, Hippocampal neuron, dose-response, FIG. 2b, read-out: EC50 of survival-promoting (biologic) effect) was about 9.82. For the same compound, the “TrkA activation (Trk Y490 phosphorylation)” value at TrkA is recorded as “no detectable activation”.

Source of the values: patent US7723328B2, “Methods of facilitating cell survival using neurotrophin mimetics” (The University of North Carolina at Chapel Hill, priority 2005, dated 2010).
